Experimental data as given in patent US4480118A, “Carboxylic acid ester and an insecticidal and/or acaricidal composition containing the same” (priority 1981, dated 1984).

Assays:
Type in all cases: in vivo
[1] = system: housefly; experiment: Insecticidal activity against housefly (Filter paper bait and contact method); conditions: Musca domestica; 500 ppm, 48 hours, adult female houseflies; read-out: Mortality
Procedure: Each 20 parts of the present compounds No. 1 to No. 29, 10 parts of an emulsifier (Sorpol 3005X; trademark for Toho Chemical Co.) and 70 parts of xylene are thoroughly mixed by stirring to obtain an emulsifiable concentrate of each compound.
A piece of filter paper, 5.5 cm in diameter, was laid on the bottom of a polyethylene cup of the identical inner diameter. An emulsifiable concentrate prepared in the same manner as in Preparation Example 2 was diluted with water. To the filter paper, was added dropwise 0.7 ml of the diluted sample (500 ppm in concentration). Sucrose (30 mg) was placed on the filter paper to serve as bait. Ten adult female houseflies were released into the cup, closed with a cover, and observed for the number of dead and alive insects after 48 hours to calculate the mortality (2 replications).

[2] = system: northern house mosquito; experiment: Mosquito coil knockdown of adult female northern house mosquitos
Procedure: Each 0.6 g of the present compounds Nos. 10, 16 and 27 is dissolved in 20 ml of methanol and uniformly mixed with 99.4 g of a carrier for mosquito coils (a mixture of Tabu powder, pyrethrum marc and wood powder in a proportion of 3:5:1) by thorough stirring. After evaporation of methanol and addition of 150 ml of water, the mixture is thoroughly kneaded, then molded, and dried to obtain a mosquito coil.
About 50 adult female northern house mosquitos were released into a glass chamber, 70×70×70 cm, and a battery-operated small fan (diameter of rotation of the vane: 13 cm) disposed in the cabinet was operated. A mosquito coil obtained in Preparation Example 6 was ignited at both ends and placed at the center of bottom of the chamber. After 20 minutes, the number of knocked down insects was counted.

[3] = system: northern house mosquito; experiment: Activity of oil spray against adult female northern house mosquito (glass chamber); conditions: for mortality, Northern house mosquito: in vivo, 24 h; for KT50 (50% knockdown time), Northern house mosquito: oil spray 0.5 ml, 10 minutes exposure
Procedure: (§1) 0.1 Part of each compound Nos. 10, 12, 15, 17, 18, 19, 22, 23 and 29 of this invention is dissolved in deodorized kerosene and made up to 100 parts with kerosene to obtain an oil spray.
(§2) Ten adult houseflies and ten adult female northern house mosquitos were released in a glass chamber, 70×70×70 cm in size. An oil spray preparation (0.5 ml) obtained in Preparation Example 1 was sprayed inside the chamber and the insects were exposed to the descending mist for 10 minutes, during which time the number of knocked-down insects was counted at predetermined time intervals to determine the 50% knockdown time (KT50). On the following day, the dead and alive insects were observed.

[4] = system: housefly; experiment: Activity of oil spray against adult housefly (glass chamber); conditions: oil spray 0.5 ml, 10 minutes exposure; for mortality, House fly: observed on the following day, 1440 min
Procedure: as §1, §2

Row | Structure (SMILES) | mortality at 500 ppm [1] [%] | Percent knocked down insects after 20 minutes [2] [%] | mortality, Northern house mosquito [3] [%] | KT50 (50% knockdown time), Northern house mosquito [3] [s] | KT50 (50% knockdown time), House fly [4] [s] | mortality, House fly [4] [%]
1 | C#CC(OC(=O)C1C(C)(C)C12Cc1ccc(F)cc1C2)C(C)=CCC (centres unmarked) [Compound 27] | 100 | 10 | – | – | – | –
2 | C=CCC1=C(C)C(OC(=O)C2C(C)(C)C23Cc2ccccc2C3)CC1=O (centres unmarked) [Compound 15] | 100 | 90 | 95 | 300 | 250 | 20
3 | C#CCC1=C(C)C(OC(=O)C2C(C)(C)C23Cc2ccccc2C3)CC1=O (centres unmarked) [Compound 10] | 100 | 94 | 100 | 320 | 210 | 30
